These results are taken from US20260199492A1, “PSD-95 DOMAIN INHIBITOR, AND PREPARATION METHOD THEREFOR AND USE THEREOF” (SHENZHEN SALUBRIS PHARMACEUTICALS CO., LTD, priority 2023, published 2026).

Square brackets hold non-standard residues; d marks the D form. Peptide text beside a SMILES is read from it. Arg(Me) = CNC(=N)NCCC[C@H](N)C(=O)O

Data set [1] is described as follows: In vitro stability experiment of cell-penetrating peptides in human plasma.
Method: (§1) 5 μL of stock solution (10 mM) was diluted with 495 μL of 0.05 M sodium phosphate buffer to 100 μM of dosing solution. The final concentration of tested drug for incubation was 10 μM.
(§2) A certain volume (e.g., 27 μL or 24 μL) of plasma was added into a 96-well plate. An appropriate volume of the internal standard working solution (e.g., 150 μL) was immediately added to precipitate. […] This was performed in duplicate.
(§3) Then, an appropriate amount of plasma (e.g., 27 μL or 24 μL) was added at the designed time points (e.g., 5 min, 15 min, 30 min, 60 min, and 120 min, etc.), and the parallel replicate wells were performed at each time point. […] The reaction was terminated by adding an appropriate amount of internal standard working solution (e.g., 150 μL) at the end of the time, and the mixture was mixed thoroughly.
(§4) The mixture was centrifuged at 4000 rpm for 15 min. A certain amount of the supernatant was taken, mixed with a certain amount of water, and then subjected to LC/MS/MS analysis. LC-MS detection conditions were as follows: • Chromatography column: YMC Triart C18, 50*3.0 mm, 2.1 μm. • Mobile phase: Gradient elution was performed using water (0.1% formic acid)-acetonitrile according to the table below.
(§5) The relative content of drug at each time point was calculated using the initial 0 point as 100%. The half-life of the drug was calculated by plotting “relative drug content” against “incubation time” using GraphPad Prism 5 software.
Data set [2] in a line: In vitro plasma stability experiment (compounds), without or with tPA. The note with it: human, 37° C., initial concentration 10 μM.
Method: • Plasma: Human plasma is commercially available. • Reagents: DMSO (dimethyl sulfoxide), disodium hydrogen phosphate, sodium dihydrogen phosphate, methanol, formic acid, and propranolol (internal standard) are commercially available. • Instrument: AB SCIEX QTRAP 5500+.
as §1, §2, §3, §4, §5
For another data set, the target named is PDZ1-2 of PSD95 (Homo sapiens, UniProt P78352). In words: Fluorescence polarization competition binding assay of PDZ1-2 with probe 5-FAM-NA-1. (In fluorescence polarisation assays a small probe gives low polarisation when free and higher when bound to something large.)
PDZ1-2 of PSD95, sequence (P78352 61-249 limits assumed): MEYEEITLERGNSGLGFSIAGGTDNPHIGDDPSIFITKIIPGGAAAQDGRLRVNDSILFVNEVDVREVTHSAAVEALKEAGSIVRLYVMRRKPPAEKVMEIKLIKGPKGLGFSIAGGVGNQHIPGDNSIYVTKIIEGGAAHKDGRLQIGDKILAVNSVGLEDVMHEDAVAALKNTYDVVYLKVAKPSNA
The nature of another data set: in vitro. The note with it: human, plasma.
The nature of data set [3]: Toxicological experiment: serum UREA and CREA after 5 days of i.v. dosing. The format is in vivo, SD rats. As for the experimental part: The compounds of Examples 1-8 were accurately weighed into suitable EP tubes, and the vehicle (saline) was added to formulate a solution of a concentration of 15 mg/mL. The solution was filtered using a 0.2 μm filter for future use.
A total of 18 male SD rats of 6-7 weeks of age were used for test. After the animal quarantine and acclimatization period, the animals were randomly divided into 6 groups according to their body weights measured before grouping, vehicle control group (saline) as well as example compounds groups, 3 animals/group. Using the above prepared solution, the animal was administered intravenously via the tail vein at a dosage of 30 mg/kg and a dosing volume of 2 mL/kg. The dosing volume for each animal was calculated according to the body weight. Administration was performed once daily for 5 consecutive days. After 2 h of administration on day 5, the animals were deeply anesthetized by intraperitoneal injection of sodium pentobarbital. The thoracic cavity was opened, and blood was collected from the abdominal aorta into blood collection tubes containing inert separation gel and coagulant. The serum was collected by centrifugation (4000 rpm, 10 min) after about 1 h of resting. The concentrations of UREA and CREA in the serum were detected using a biochemical analyzer. The percentage change of each example compound relative to the vehicle control group was calculated using the formula: %=(Concentration of example compound−Concentration of vehicle control group)/Concentration of vehicle control group.

[4] abbreviates: plasma, Without tPA T1/2, cell-penetrating peptide, human plasma, initial concentration 10 μM, without tPA.
[5] abbreviates: With tPA T1/2, human plasma, with rt-PA […].
Setting [6] is: Without tPA T1/2, human plasma, without tPA.
The mark [7] stands for this setting: plasma, With tPA T1/2, cell-penetrating peptide, human plasma, initial concentration 10 μM, with tPA.
Where [8] appears, read: male SD rats, 30 mg/kg i.v. once daily for 5 days, serum 2 h after dosing on day 5.

The half-life is the time needed for the level to fall by half in the phase considered. Read a low half-life as rapid decline. `N=C(N)NCCC[C@H](NC(=O)[C@H](CCCNC(=N)N)NC(=O)[C@H](CCCNC(=N)N)NC(=O)[C@H](CCC(N)=O)NC(=O)[C@H](CCCNC(=N)N)NC(=O)[C@H](CCCNC(=N)N)NC(=O)[C@H](CCCCN)NC(=O)[C@H](CCCCN)NC(=O)[C@H](CCCNC(=N)N)NC(=O)CNC(=O)[C@@H](N)Cc1ccc(O)cc1)C(=O)O` [TAT-1, reference compound]: in data set [1] (setting [4]), the half-life at 10 μM is 1.52 h.

By IC50 is commonly meant the midpoint of a concentration-inhibition curve. Low values mean greater potency in that assay, high ones weaker potency in that assay. `CC[C@H](C)[C@H](NC(=O)[C@H](CO)NC(=O)[C@H](CO)NC(=O)[C@H](CC(C)C)NC(=O)[C@@H](CCCCN)NC(=O)[C@H](CCCNC(=N)N)NC(=O)[C@H](CCCNC(=N)N)NC(=O)[C@H](CCCNC(=N)NC)NC(=O)[C@H](CCC(N)=O)NC(=O)[C@@H](CCCNC(=N)N)NC(=O)[C@H](CCCNC(=N)N)NC(=O)[C@H](CCCCN)NC(=O)[C@H](CCCCN)NC(=O)[C@](C)(CCCNC(=N)N)NC(=O)CNC(=O)[C@@H](N)Cc1ccc(O)cc1)C(=O)N[C@@H](CCC(=O)O)C(=O)N[C@@H](CO)C(=O)N[C@@H](CC(=O)O)C(=O)N[C@H](C(=O)O)C(C)C` (relative stereo) [Compound I13]: the half-life at 10 μM in data set [2] (setting [5]) was 14.5 h; in data set [2] (setting [6]), 10.7 h. Further, the IC50 at PDZ1-2 of PSD95 was found to be 6.33 µM.

For `CNC(=N)NCCC[C@H](NC(=O)[C@H](CCC(N)=O)NC(=O)[C@@H](CCCNC(=N)N)NC(=O)[C@H](CCCNC(=N)N)NC(=O)[C@H](CCCCN)NC(=O)[C@H](CCCCN)NC(=O)[C@@H](CCCNC(=N)N)NC(=O)CNC(=O)[C@@H](N)Cc1ccc(O)cc1)C(=O)N[C@@H](CCCNC(=N)N)C(=O)N[C@@H](CCCNC(=N)N)C(=O)O` [TAT-5], the half-life at 10 μM in data set [1] (setting [7]) is 12.3 h; in data set [1] (setting [4]), greater than 33.3 h.

On to `CC[C@H](C)[C@H](NC(=O)CCOCCOCCN(CCOCCOCCC(=O)N[C@H](C(=O)N[C@@H](CCC(=O)O)C(=O)N[C@H](C(=O)N[C@@H](CC(=O)O)C(=O)N[C@H](C(=O)O)C(C)C)[C@@H](C)O)[C@@H](C)CC)C(=O)[C@H](CCCNC(=N)N)NC(=O)[C@H](CCCNC(=N)N)NC(=O)[C@@H](CCCNC(=N)N)NC(=O)[C@H](CCC(N)=O)NC(=O)[C@@H](CCCNC(=N)N)NC(=O)[C@H](CCCNC(=N)N)NC(=O)[C@H](CCCCN)NC(=O)[C@H](CCCCN)NC(=O)[C@@H](CCCNC(=N)N)NC(=O)CNC(=O)[C@@H](N)Cc1ccc(O)cc1)C(=O)N[C@@H](CCC(=O)O)C(=O)N[C@H](C(=O)N[C@@H](CC(=O)O)C(=O)N[C@H](C(=O)O)C(C)C)[C@@H](C)O` [Compound 43], for which the half-life in “in vitro” (With tPA T1/2, human plasma, 37° C., initial concentration 10 μM, with rt-PA […]) is 20.5 h; in “in vitro” (Without tPA T1/2, human plasma, 37° C., initial concentration 10 μM, without tPA) it was greater than 33.3 h.

As for `CC[C@H](C)[C@H](NC(=O)CCOCCOCCN(CCOCCOCCC(=O)N[C@H](C(=O)N[C@@H](CCC(=O)O)C(=O)N[C@H](C(=O)N[C@@H](CC(=O)O)C(=O)N[C@H](C(=O)O)C(C)C)[C@@H](C)O)[C@@H](C)CC)C(=O)[C@H](CCCNC(=N)N)NC(=O)[C@H](CCCNC(=N)N)NC(=O)[C@@H](CCCNC(=N)N)NC(=O)[C@H](CCC(=O)O)NC(=O)[C@@H](CCCNC(=N)N)NC(=O)[C@H](CCCNC(=N)N)NC(=O)[C@H](CCCCN)NC(=O)[C@H](CCCCN)NC(=O)[C@@H](CCCNC(=N)N)NC(=O)CNC(=O)[C@@H](N)Cc1ccc(O)cc1)C(=O)N[C@@H](CCC(=O)O)C(=O)N[C@H](C(=O)N[C@@H](CC(=O)O)C(=O)N[C@H](C(=O)O)C(C)C)[C@@H](C)O` [Compound 65], the half-life at 10 μM in data set [2] (setting [5]) was 10.5 h. The compound further came in with a half-life at 10 μM in data set [2] (setting [6]) greater than 33.3 h. Moreover, in data set [3] (setting [8]), the “CREA, percentage change compared to vehicle control group” value is given as −3.3% and the “UREA, percentage change compared to vehicle control group” value is reported as 23.7%.

Take `CC[C@H](C)[C@H](NC(=O)[C@H](CO)NC(=O)[C@H](CO)NC(=O)[C@H](CC(C)C)NC(=O)[C@@H](CCCCN)NC(=O)[C@H](CCCNC(=N)N)NC(=O)[C@H](CCCNC(=N)N)NC(=O)[C@@H](CCCNC(=N)N)NC(=O)[C@H](CCC(N)=O)NC(=O)[C@@H](CCCNC(=N)N)NC(=O)[C@H](CCCNC(=N)N)NC(=O)[C@H](CCCCN)NC(=O)[C@H](CCCCN)NC(=O)[C@@H](CCCNC(=N)N)NC(=O)CNC(=O)[C@@H](N)Cc1ccc(O)cc1)C(=O)N[C@@H](CCC(=O)O)C(=O)N[C@@H](CO)C(=O)N[C@@H](CC(=O)O)C(=O)N[C@H](C(=O)O)C(C)C` [NoNo-42, reference compound] (H-YG[dR]KKR[dR]Q[dR]RR[dK]LSSIESDV-OH; N-terminus and C-terminus assumed): in data set [3] (rat, in vivo, iv, 30 mg/kg), the “CREA, percentage change compared to vehicle control group” value is reported as 308.8% and the “UREA, percentage change compared to vehicle control group” value was 237.9%. For the same compound, on PDZ1-2 of PSD95, the IC50 worked out at 9.71 µM. Further, in the data set “in vitro”, the half-life at 10 μM stood at 6.88 h.

`N=C(N)NCCC[C@H](NC(=O)[C@@H](CCCNC(=N)N)NC(=O)[C@H](CCC(N)=O)NC(=O)[C@@H](CCCNC(=N)N)NC(=O)[C@H](CCCNC(=N)N)NC(=O)[C@H](CCCCN)NC(=O)[C@H](CCCCN)NC(=O)[C@@H](CCCNC(=N)N)NC(=O)CNC(=O)[C@@H](N)Cc1ccc(O)cc1)C(=O)O` [TAT-3] (H-YG[dR]KKR[dR]Q[dR]R-OH): the half-life at 10 μM in data set [1] (plasma) was determined as 21.7 h; in data set [1] (plasma with added rt-PA) it was 27.5 h.

`CC[C@H](C)[C@H](NC(=O)[C@H](CO)NC(=O)[C@H](CO)NC(=O)[C@H](CC(C)C)NC(=O)[C@@H](CCCCN)NC(=O)[C@H](CCCNC(=N)N)NC(=O)[C@H](CCCNC(=N)N)NC(=O)[C@H](CCCNC(=N)NC)NC(=O)[C@H](CCC(=O)O)NC(=O)[C@@H](CCCNC(=N)N)NC(=O)[C@H](CCCNC(=N)N)NC(=O)[C@H](CCCCN)NC(=O)[C@H](CCCCN)NC(=O)[C@@H](CCCNC(=N)N)NC(=O)CNC(=O)[C@@H](N)Cc1ccc(O)cc1)C(=O)N[C@@H](CCC(=O)O)C(=O)N[C@@H](CO)C(=O)N[C@@H](CC(=O)O)C(=O)N[C@H](C(=O)O)C(C)C` [Compound I1] (H-YG[dR]KKR[dR]E[Arg(Me)]RR[dK]LSSIESDV-OH): the half-life came out at 9.18 h in the data set “in vitro” (With tPA T1/2) and 18.6 h in the data set “in vitro” (Without tPA T1/2).

Consider `N=C(N)NCCC[C@H](NC(=O)[C@H](CCCNC(=N)N)NC(=O)[C@@H](CCCNC(=N)N)NC(=O)[C@H](CCC(=O)O)NC(=O)[C@@H](CCCNC(=N)N)NC(=O)[C@H](CCCNC(=N)N)NC(=O)[C@H](CCCCN)NC(=O)[C@H](CCCCN)NC(=O)[C@@H](CCCNC(=N)N)NC(=O)CNC(=O)[C@@H](N)Cc1ccc(O)cc1)C(=O)O` [TAT-4], for which the half-life at 10 μM came out at 14.9 h in data set [1] (setting [7]) and 11.9 h in data set [1] (setting [4]).

At PDZ1-2 of PSD95, `CC[C@H](C)[C@H](NC(=O)[C@H](CO)NC(=O)[C@H](CO)NC(=O)[C@H](CC(C)C)NC(=O)[C@@H](CCCCN)NC(=O)[C@H](CCCNC(=N)N)NC(=O)[C@H](CCCNC(=N)N)NC(=O)[C@H](CCCNC(=N)NC)NC(=O)[C@H](CCC(=O)O)NC(=O)[C@@H](CCCNC(=N)N)NC(=O)[C@H](CCCNC(=N)N)NC(=O)[C@H](CCCCN)NC(=O)[C@H](CCCCN)NC(=O)[C@](C)(CCCNC(=N)N)NC(=O)CNC(=O)[C@@H](N)Cc1ccc(O)cc1)C(=O)N[C@@H](CCC(=O)O)C(=O)N[C@@H](CO)C(=O)N[C@@H](CC(=O)O)C(=O)N[C@H](C(=O)O)C(C)C` (relative stereo) [Compound I15] yielded an IC50 of 7.89 µM. Also, the half-life in the data set “in vitro” (With tPA T1/2) was 27.2 h; in the data set “in vitro” (Without tPA T1/2), greater than 33.3 h.

`CNC(=N)NCCC[C@H](NC(=O)[C@H](CCC(=O)O)NC(=O)[C@@H](CCCNC(=N)N)NC(=O)[C@H](CCCNC(=N)N)NC(=O)[C@H](CCCCN)NC(=O)[C@H](CCCCN)NC(=O)[C@@H](CCCNC(=N)N)NC(=O)CNC(=O)[C@@H](N)Cc1ccc(O)cc1)C(=O)N[C@@H](CCCNC(=N)N)C(=O)N[C@@H](CCCNC(=N)N)C(=O)O` [TAT-6]: the half-life at 10 μM in data set [1] (setting [7]) was 4.3 h; in data set [1] (setting [4]) it was 2.83 h.
